Data set [1] deals with T1, Rat Liver DHFR (Rattus norvegicus, UniProt Q920D2).
T1 sequence (Q920D2 1-187): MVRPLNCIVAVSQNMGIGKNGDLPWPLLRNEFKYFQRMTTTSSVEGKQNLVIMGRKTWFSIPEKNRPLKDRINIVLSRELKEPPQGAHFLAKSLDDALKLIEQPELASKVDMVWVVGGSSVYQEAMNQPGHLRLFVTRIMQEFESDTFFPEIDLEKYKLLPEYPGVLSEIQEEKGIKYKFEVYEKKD
Description: biochemical. To be noted: DHFR enzyme activity, P95 limits in parentheses. As for the experimental part: (§1) Compounds of Formula (I) were tested for their effect on veratrine-evoked release of glutamate from rat brain slices according to the protocol described in Epilepsia 27(5): 490-497, 1986. The protocol for testing for inhibition of DHFR activity was a modification of that set out in Biochemical Pharmacology Vol. 20 pp 561-574, 1971.

The test system of data set [2] is veratrine-evoked release of glutamate from rat brain slices. Description: tissue or blood. It is filed as cell-based. To be noted: P95 limits in parentheses. As for the experimental part:
as §1

Data set [3] relates to release of the excitatory amino acid aspartate. To be noted: statement in words; Leach et al Epilepsia 27, 490-497 1986; Miller et al 1987; cited from earlier work.
In data set [4] the test system is release of the excitatory amino acid glutamate. To be noted: statement in words; Leach et al Epilepsia 27, 490-497 1986; Miller et al 1987; cited from earlier work.
Data set [5] in a line: Toxicology, once daily intravenous administration to Wistar rats. To be noted: rat, in vivo, dose levels of upto 15 mg/kg/day, read-out: no observed effect dose. As for the experimental part: The compound of Example 1 has been administered intravenously to groups of six male and six female Wistar rats once daily at dose levels of upto 15 mg/kg/day. The no observed effect dose was 2.5 mg/kg/day.

A short description of data set [6]: Duration of action / clearance from the central nervous system (statement). To be noted: statement in words.
Data set [7] can be described thus: Toxicology in rats. To be noted: rat, in vivo, read-out: no observed effect dose. As for the experimental part: (§2) The compound of Example 2, has been tested in both rats and dogs. In rats the no observed effect dose was 2.5 mg/kg/day and in dogs, the no observed effect dose was 14 mg/kg/day.
Data set [8] can be described thus: in vivo. Further details: species or system dogs. To be noted: dog. As for the experimental part: as §2

A value given as a limit tells only on which side of the number the result lay.

Consider 29 molecules from patent publication US5136080A, “Nitrile compounds” (Burroughs Wellcome Co., priority 1990, dated 1992).

In general, IC50 refers to the concentration at which inhibition is half-maximal.

Consider `Nc1nc(N)c(-c2cccc(Cl)c2Cl)c(COc2ccccc2)n1` [Example 19, 2,4-Diamino-5-(2,3-dichlorophenyl)-6-phenoxymethylpyrimidine], for which the IC50 in data set [1] is > 100 µM; in data set [2], 2.6 µM.
The like results for `Cc1nc(N2CCN(C)CC2)nc(N)c1-c1cc(Cl)cc(Cl)c1Cl` [Example 11, 4-Amino-6-methyl-2-(4-methylpiperazin-1-yl)-5-(2,3,5-trichlorophenyl)pyrimidine] were, in that order, > 100 µM and 4.8 µM.
Take `Cc1nc(N)nc(N)c1-c1cccc(Cl)c1Cl` [Example 15, 2,4-Diamino-5-(2,3-dichlorophenyl)-6-methylpyrimidine]: the IC50 worked out at 8.7 µM in data set [1] and 2.7 µM in data set [2].
For `Nc1nc(N2CCOCC2)ncc1-c1cc(Cl)cc(Cl)c1Cl` [Example 9, 4-Amino-2-N-morpholino-5-(2,3,5-trichlorophenyl)-pyrimidine] the same measures were > 100 µM and < 10 µM.
As for `CN1CCN(c2ncc(-c3ccc(Cl)cc3Cl)c(N)n2)CC1` [Example 27, 2-(4-methylpiperazin-1-yl)-4-amino-5-(2,4-dichlorophenyl)pyrimidine], the IC50 in data set [1] was > 100 µM; in data set [2], ~10 µM.
For `CN(C)c1ncc(-c2cc(Cl)cc(Cl)c2Cl)c(N)n1` [Example 10, 4-Amino-2-N,N-dimethylamino-5-(2,3,5-trichlorophenyl)pyrimidine] the same measures were > 100 µM and < 10 µM.
With `Nc1ncc(-c2cccc(Cl)c2Cl)c(N)n1` [Example 21, 2,4-Diamino-5-(2,3-dichlorophenyl)pyrimidine], the concentration for half-maximal inhibition (IC50) in data set [1] was 16 µM; in data set [2], 11.5 µM.
For `Nc1nc(N)c(-c2cccc(Cl)c2Cl)c(CF)n1` [Example 18, 2,4-Diamino-5-(2,3-dichlorophenyl)-6-fluoromethylpyrimidine] the same measures were ~100 µM and < 10 µM.
Regarding `Nc1ncc(-c2cc(Cl)c([N+](=O)[O-])c(Cl)c2Cl)c(N)n1` [Example 5, 2,4-Diamino-5-(4-nitro-2,3,5-trichlorophenyl)pyrimidine], the values for the IC50 in data set [1] and in data set [2] were ~100 µM and 3.5 µM, respectively.
Turning to `CCc1nc(N)nc(N)c1-c1ccccc1Cl` [Example 24, 2,4-Diamino-5-(2-chlorophenyl)-6-ethylpyrimidine], the IC50 was 15.1 µM in data set [1] and 2.1 µM in data set [2].
Take `Nc1nnc(-c2cccc(Cl)c2Cl)c(N)n1` [lamotrigine, 3,5-diamino-6-(2,3-dichlorophenyl)-1,2,4-triazine]: the “inhibition of the release of aspartate” value in data set [3] is reported as “shown to inhibit the release”. In addition, the “inhibition of the release of glutamate” value in data set [4] was “shown to inhibit the release”.
Consider `CSCc1nc(N)nc(N)c1-c1cccc(Cl)c1Cl` [Example 20, 2,4-Diamino-5-(2,3-dichlorophenyl)-6-methylthiomethylpyrimidine], for which the IC50 in data set [1] came out at 17.5 µM; in data set [2], 4.2 µM.
For `Cc1nc(N(C)C)nc(N)c1-c1cc(Cl)cc(Cl)c1Cl` [Example 13, 4-Amino-2-(N,N-dimethylamino)-6-methyl-5-(2,3,5-trichlorophenyl)pyrimidine] the same measures were > 100 µM and < 10 µM.
The like results for `Nc1nc(N)c(-c2cc(Cl)cc(Cl)c2Cl)c(C(F)(F)F)n1` [Example 4, 2,4-Diamino-5-(2,3,5-trichlorophenyl)-6-trifluoromethylpyrimidine] were, in that order, > 100 µM and 0.33 µM.
Regarding `Nc1nc(N)c(-c2ccc(Cl)cc2Cl)c(COCc2ccccc2)n1` [Example 26, 6-Benzyloxymethyl-2,4-diamino-5-(2,4-dichlorophenyl)pyrimidine], the IC50 was ~10 µM in data set [1] and ~3 µM in data set [2].
For `Cc1nc(N)nc(N)c1-c1ccccc1Cl` [Example 22, 2,4-Diamino-5-(2-chlorophenyl)-6-methyl-pyrimidine] the same measures were 23.8 µM and 2.8 µM.
For the molecule `Nc1nc(N)c(-c2cccc(Cl)c2Cl)c(C(F)(F)F)n1` [Example 14, 2,4-Diamino-5-(2,3-dichlorophenyl)-6-trifluoromethylpyrimidine], the IC50 is > 100 µM in data set [1] and 3.1 µM in data set [2].
For `Nc1nc(N2CCOCC2)nc(C(F)(F)F)c1-c1cc(Cl)cc(Cl)c1Cl` [Example 7, 4-Amino-2-N-morpholino-5-(2,3,5-trichlorophenyl)-6-trifluoromethylpyrimidine] the same measures were > 10 µM and < 10 µM.
The like results for `Nc1ncc(-c2cc(Cl)cc(Cl)c2Cl)c(N)n1` [Example 29, 2,4-Diamino-5-(2,3,5-trichlorophenyl)pyrimidine] were, in that order, 0.53 µM and 1.57 µM.
The like results for `COCc1nc(N)nc(N)c1-c1cccc(Cl)c1Cl` [Example 16, 2,4-Diamino-5-(2,3-dichlorophenyl)-6-methoxymethylpyrimidine] were, in that order, > 100 µM and 3.2 µM.
Regarding `Cc1nc(N)nc(N)c1-c1cc(Cl)cc(Cl)c1Cl` [Example 6, 2,4-Diamino-5-(2,3,5-trichlorophenyl)-6-methylpyrimidine], the IC50 in data set [1] worked out at 0.51 µM; in data set [2], 0.7 µM.
The like results for `Cc1nc(N)nc(N)c1-c1cc(Cl)c([N+](=O)[O-])c(Cl)c1Cl` [Example 12, 2,4-diamino-6-methyl-5-(2,3,5-trichloro-4-nitrophenyl) pyrimidine] were, in that order, > 100 µM and < 10 µM.
As for `Nc1ncc(-c2cccc3ccccc23)c(N)n1` [Example 17, 2,4-Diamino-5-(1-naphthyl)pyrimidine], the IC50 in data set [1] is 4.9 µM; in data set [2], 2.4 µM.
For `CN1CCN(c2nc(N)c(-c3cc(Cl)cc(Cl)c3Cl)c(C(F)(F)F)n2)CC1` [Example 1, 4-Amino-2-(4-methylpiperazin-1-yl)-5-(2,3,5-trichlorophenyl)-6-trifluoromethylpyrimidine], the half-maximal inhibitory concentration (IC50) is > 100 µM in data set [1] and 1.18 µM in data set [2]. The NOAEL in data set [5] came to 2.5 mg/kg/day.
In the case of `CN(C)c1nc(N)c(-c2cc(Cl)cc(Cl)c2Cl)c(C(F)(F)F)n1` [Example 8, 4-Amino-2-N,N-dimethylamino-5-(2,3,5-trichlorophenyl)-6-trifluoromethylpyrimidine], the IC50 in data set [1] is > 10 µM; in data set [2] it was < 10 µM.
In the case of `Nc1ncc(-c2ccccc2Cl)c(N)n1` [Example 23, 2,4-Diamino-5-(2-chlorophenyl)pyrimidine], the IC50 amounted to 20.9 µM in data set [1] and 8.7 µM in data set [2].
For `Nc1nc(N)c(-c2ccc(Cl)cc2Cl)c(C(F)(F)F)n1` [Example 25, 2,4-Diamino-5-(2,4-dichlorophenyl)-6-trifluoromethylpyrimidine] the same measures were > 100 µM and 4.1 µM.
For the molecule `Nc1nc(N)c(-c2cc(Cl)ccc2Cl)c(C(F)(F)F)n1` [Example 28, 2,4-Diamino-5-(2,5-dichlorophenyl)-6-trifluoromethylpyrimidine], the IC50 in data set [1] was determined as 46.1 µM; in data set [2], 4.6 µM.
As to `COCc1nc(N)nc(N)c1-c1cc(Cl)cc(Cl)c1Cl` [Example 2, 2,4-Diamino-5-(2,3,5-trichlorophenyl)-6-methoxymethylpyrimidine], the IC50 in data set [1] was determined as 33 µM; in data set [2], 0.56 µM. Further, in data set [6], the “clearance from the central nervous system” value is reported as “cleared from the central nervous system rapidly”. Besides, the NOAEL in data set [7] is 2.5 mg/kg/day; in data set [8] it was 14 mg/kg/day.
